Laboratory results: ChEMBL document CHEMBL4052581, “Expanding the Cancer Arsenal with Targeted Therapies: Disarmament of the Antiapoptotic Bcl-2 Proteins by Small Molecules” (J Med Chem, 2017)

Assays:
[1] = molecular target: T1, Apoptosis regulator Bcl-2 (Homo sapiens, UniProt P10415); assay: Inhibition of FAM-Bid binding to Bcl-2 (unknown origin) after 30 mins by fluorescence polarization assay
[2] = molecular target: T2, Induced myeloid leukemia cell differentiation protein Mcl-1 (Homo sapiens, UniProt Q07820); assay: Inhibition of FAM-Bid binding to Mcl-1 (unknown origin) after 30 mins by fluorescence polarization assay
Bcl-2-like protein 1 [3] = molecular target: T3, Bcl-2-like protein 1 (Homo sapiens, UniProt Q07817); assay: Inhibition of Bak BH3 peptide binding to GST-tagged human Bcl-xL after 3 hrs by Western blotting-based GST pull-down assay
[4] = molecular target: T2, Induced myeloid leukemia cell differentiation protein Mcl-1; assay: Inhibition of Bim BH3 peptide binding to GST-tagged human Mcl-1 after 3 hrs by Western blotting-based GST pull-down assay
Bcl-2-related protein A1 = molecular target: T4, Bcl-2-related protein A1 (Homo sapiens, UniProt Q16548); assay: Binding affinity to Bcl2A1 (unknown origin)
T4 sequence (Q16548 whole entry): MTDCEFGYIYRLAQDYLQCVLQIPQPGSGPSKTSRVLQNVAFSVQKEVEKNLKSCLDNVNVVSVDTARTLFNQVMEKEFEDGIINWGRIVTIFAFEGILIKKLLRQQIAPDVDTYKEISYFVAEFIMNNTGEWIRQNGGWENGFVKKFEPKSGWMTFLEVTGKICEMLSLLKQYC

Bcl-2-like protein 1 [5] = molecular target: T3, Bcl-2-like protein 1; assay: Inhibition of FITC-BID BH3 peptide binding to recombinant GST-tagged C-terminal truncated Bcl-xL (unknown origin) expressed in Escherichia coli BL21 (DE3) after 5 mins by fluorescence polarization assay
[6] = molecular target: T2, Induced myeloid leukemia cell differentiation protein Mcl-1; assay: Inhibition of FITC-BID BH3 peptide binding to recombinant GST-tagged N-terminal/C-terminal truncated Mcl-1 (unknown origin) expressed in Escherichia coli BL21 (DE3) after 5 mins by fluorescence polarization assay
[7] = molecular target: T2, Induced myeloid leukemia cell differentiation protein Mcl-1; assay: Binding affinity to Mcl-1 (unknown origin) by TR-FRET assay
Bcl-2-like protein 1 [8] = molecular target: T3, Bcl-2-like protein 1; assay: Inhibition of Bcl-xL (unknown origin) by fluorescence polarization assay
[9] = molecular target: T1, Apoptosis regulator Bcl-2; assay: Inhibition of Bcl-2 (unknown origin) by fluorescence polarization assay
Homo sapiens [10] = species on record: Homo sapiens; assay: Selectivity ratio of compound effect for Bcl-2 (unknown origin) to compound effect for Mcl-1 (unknown origin)
Homo sapiens [11] = species on record: Homo sapiens; assay: Selectivity ratio of compound effect for Bcl-xL (unknown origin) to compound effect for Mcl-1 (unknown origin)
[12] = molecular target: T2, Induced myeloid leukemia cell differentiation protein Mcl-1; assay: Inhibition of FITC-labeled Bim BH3 binding to GST-tagged Mcl-1 (unknown origin) preincubated for 2 mins followed by FITC-Bim-BH3 addition measured after 10 mins by fluorescence polarization assay
[13] = molecular target: T2, Induced myeloid leukemia cell differentiation protein Mcl-1; assay: Inhibition of FITC-labeled Bak-BH3 peptide binding to Mcl-1 (unknown origin) by fluorescence polarization assay
Bcl-2-like protein 1 [14] = molecular target: T3, Bcl-2-like protein 1; assay: Inhibition of FITC-labeled Bak-BH3 peptide binding to Bcl-xL (unknown origin) by fluorescence polarization assay
[15] = Selectivity ratio of IC50 for human Bcl-2 to IC50 for mouse Mcl-1

T3 sequence (Q07817 whole entry): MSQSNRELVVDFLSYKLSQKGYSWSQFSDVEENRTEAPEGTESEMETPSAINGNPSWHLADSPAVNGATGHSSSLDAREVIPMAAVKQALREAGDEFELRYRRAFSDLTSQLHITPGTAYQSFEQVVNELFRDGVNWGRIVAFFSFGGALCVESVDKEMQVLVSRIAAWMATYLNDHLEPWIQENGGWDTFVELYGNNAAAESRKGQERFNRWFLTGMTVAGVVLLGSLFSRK
T2 sequence (Q07820 whole entry): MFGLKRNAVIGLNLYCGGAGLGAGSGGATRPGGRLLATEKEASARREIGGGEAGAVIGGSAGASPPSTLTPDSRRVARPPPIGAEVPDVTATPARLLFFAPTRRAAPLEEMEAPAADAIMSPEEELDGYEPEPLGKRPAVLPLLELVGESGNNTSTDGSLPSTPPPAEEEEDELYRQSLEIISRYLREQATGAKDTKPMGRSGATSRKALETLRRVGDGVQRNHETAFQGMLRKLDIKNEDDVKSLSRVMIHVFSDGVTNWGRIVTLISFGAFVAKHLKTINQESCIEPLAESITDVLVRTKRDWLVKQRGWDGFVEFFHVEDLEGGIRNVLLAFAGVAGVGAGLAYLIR
T1 sequence (P10415 whole entry): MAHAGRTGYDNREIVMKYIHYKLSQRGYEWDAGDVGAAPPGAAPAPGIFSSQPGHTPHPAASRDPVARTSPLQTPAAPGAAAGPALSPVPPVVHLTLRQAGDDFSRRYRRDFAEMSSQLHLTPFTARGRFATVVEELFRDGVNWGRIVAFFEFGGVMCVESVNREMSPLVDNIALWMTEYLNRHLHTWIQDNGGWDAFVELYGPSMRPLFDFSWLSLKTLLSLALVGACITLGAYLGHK

Which Kd [1] does the source give for `N#CC1=C2C(=NC1=O)c1cccc3c(N4CCSCC4)ccc2c13` here?
The Kd was 310 nM.

And the Kd [2]?
Its Kd is 58 nM.

For `CC(C)Cc1cc(-c2ccc(-c3ccc(CCC(=O)O)cc3CC(C)C)cc2Cc2ccccc2)ccc1OCC(=O)O`, which IC50 (Bcl-2-like protein 1 [3]) is on record?
Its IC50 is 1500 nM.

And the IC50 [4]?
Its IC50 is 4900 nM.

For `CN(C)CC[C@H](CSc1ccccc1)Nc1ccc(S(=O)(=O)NC(=O)c2ccc(N3CCN(Cc4ccccc4-c4ccc(Cl)cc4)CC3)cc2)cc1[N+](=O)[O-]` [ABT 737], which Ki (Bcl-2-related protein A1) is on record?
The Ki was greater than 20000 nM.

What does the source list for `Cc1cs/c(=N\C2CCCCC2)n1/N=C/c1cc(O)c(O)c(O)c1`?
IC50 (Bcl-2-like protein 1 [5]): > 50000 nM; IC50 [6]: 4800 nM

With `CC1(C)CCC(CN2CCN(c3ccc(C(=O)NS(=O)(=O)c4ccc(NCC5CCOCC5)c([N+](=O)[O-])c4)c(Oc4cnc5[nH]ccc5c4)c3)CC2)=C(c2ccc(Cl)cc2)C1` [VENETOCLAX] as the molecule, how does the Ki [7] read?
Its Ki is greater than 444 nM.

For `Cc1c(S(C)(=O)=O)c(-c2cc(F)cc(N3CCN(c4ccc(NS(=O)(=O)c5ccc(N[C@H](CCN6CCC(O)CC6)CSc6ccccc6)c(S(=O)(=O)C(F)(F)F)c5)cc4)CC3)c2)c(-c2ccc(Cl)cc2)n1C(C)C`, which Ki (Bcl-2-like protein 1 [8]) is on record?
Its Ki is less than 1 nM.

What about the Ki [9] of the same molecule?
The Ki was less than 1 nM.

And the Selectivity ratio (Homo sapiens [10])?
The Selectivity ratio was greater than 1000.

And the Selectivity ratio (Homo sapiens [11])?
The Selectivity ratio was greater than 1000.

Which IC50 [12] does the source give for `CC1=C(C2=C(C)C(=O)c3c(cc(O)c(O)c3Cc3ccccc3)C2=O)C(=O)c2cc(O)c(O)c(Cc3ccccc3)c2C1=O` here?
The IC50 was 25 nM.

With `CC(C)Oc1cc(C(=O)Nc2ccc(C(=O)Nc3ccc(C(=O)O)cc3OC(C)C)nc2OC(C)C)ccc1N` as the molecule, how does the IC50 [13] read?
Its IC50 is 10000 nM.

What about the IC50 (Bcl-2-like protein 1 [14]) of the same molecule?
The IC50 was 394 nM.

With `O=C(c1ccccc1O)c1[nH]c(Cl)c(Cl)c1-n1c(C(=O)c2ccccc2O)cc(Cl)c1Cl` as the molecule, how does the Ratio IC50 [15] read?
Its Ratio IC50 is greater than 8.
